# According to ChEMBL document CHEMBL1150788, “In vitro susceptibility of Sporothrix schenckii to six antifungal agents determined using three different methods” (2007):
# What was measured:
# Assay type in all cases: functional
# Sporothrix schenckii [1] = test: Antifungal activity against Sporothrix schenckii P3287 isolate from cutaneous-lymphatic sporotrichosis patient after 72 hrs by ATB Fungus 2 method
# Sporothrix schenckii [2] = test: Antifungal activity against Sporothrix schenckii P0019 isolate from cutaneous-lymphatic sporotrichosis patient after 72 hrs by Sensititre YeastOne method
# Sporothrix schenckii [3] = test: Antifungal activity against Sporothrix schenckii PSSA81 isolate from cutaneous-lymphatic sporotrichosis patient after 72 hrs by modified NCCLS M38-A method
# Sporothrix schenckii [4] = test: Antifungal activity against Sporothrix schenckii P25013 isolate from cutaneous-lymphatic sporotrichosis patient after 72 hrs by Sensititre YeastOne method
# Sporothrix schenckii [5] = test: Antifungal activity against Sporothrix schenckii P25013 isolate from cutaneous-lymphatic sporotrichosis patient after 72 hrs by ATB Fungus 2 method
# Sporothrix schenckii [6] = test: Antifungal activity against Sporothrix schenckii P20825 isolate from cutaneous-lymphatic sporotrichosis patient after 72 hrs by modified NCCLS M38-A method
# Sporothrix schenckii [7] = test: Antifungal activity against Sporothrix schenckii P20825 isolate from cutaneous-lymphatic sporotrichosis patient after 72 hrs by Sensititre YeastOne method
# Sporothrix schenckii [8] = test: Antifungal activity against Sporothrix schenckii P20825 isolate from cutaneous-lymphatic sporotrichosis patient after 72 hrs by ATB Fungus 2 method
# Sporothrix schenckii [9] = test: Antifungal activity against Sporothrix schenckii P30019 isolate from cutaneous-lymphatic sporotrichosis patient after 72 hrs by modified NCCLS M38-A method
# Sporothrix schenckii [10] = test: Antifungal activity against Sporothrix schenckii P30019 isolate from cutaneous-lymphatic sporotrichosis patient after 72 hrs by Sensititre YeastOne method
# Sporothrix schenckii [11] = test: Antifungal activity against Sporothrix schenckii P30019 isolate from cutaneous-lymphatic sporotrichosis patient after 72 hrs by ATB Fungus 2 method
# Sporothrix schenckii [12] = test: Antifungal activity against Sporothrix schenckii P14954 isolate from cutaneous-lymphatic sporotrichosis patient after 72 hrs by modified NCCLS M38-A method
# Sporothrix schenckii [13] = test: Antifungal activity against Sporothrix schenckii P14954 isolate from cutaneous-lymphatic sporotrichosis patient after 72 hrs by Sensititre YeastOne method
# Sporothrix schenckii [14] = test: Antifungal activity against Sporothrix schenckii MRSS4 isolate from cutaneous-lymphatic sporotrichosis patient after 72 hrs by modified NCCLS M38-A method
# Sporothrix schenckii [15] = test: Antifungal activity against Sporothrix schenckii MRSS4 isolate from cutaneous-lymphatic sporotrichosis patient after 72 hrs by ATB Fungus 2 method
# Sporothrix schenckii [16] = test: Antifungal activity against Sporothrix schenckii P24223 isolate from cutaneous-lymphatic sporotrichosis patient after 72 hrs by modified NCCLS M38-A method
# Sporothrix schenckii [17] = test: Antifungal activity against Sporothrix schenckii P24223 isolate from cutaneous-lymphatic sporotrichosis patient after 72 hrs by Sensititre YeastOne method
# Sporothrix schenckii [18] = test: Antifungal activity against Sporothrix schenckii P24223 isolate from cutaneous-lymphatic sporotrichosis patient after 72 hrs by ATB Fungus 2 method
# Sporothrix schenckii [19] = test: Antifungal activity against Sporothrix schenckii PSCC1 isolate from cutaneous-lymphatic sporotrichosis patient after 72 hrs by modified NCCLS M38-A method
# Sporothrix schenckii [20] = test: Antifungal activity against Sporothrix schenckii PSCC1 isolate from cutaneous-lymphatic sporotrichosis patient after 72 hrs by Sensititre YeastOne method
# Sporothrix schenckii [21] = test: Antifungal activity against Sporothrix schenckii P24255 isolate from cutaneous-lymphatic sporotrichosis patient after 72 hrs by Sensititre YeastOne method
# Sporothrix schenckii [22] = test: Antifungal activity against Sporothrix schenckii P24255 isolate from cutaneous-lymphatic sporotrichosis patient after 72 hrs by ATB Fungus 2 method
# Sporothrix schenckii [23] = test: Antifungal activity against Sporothrix schenckii P10012 isolate from cutaneous-lymphatic sporotrichosis patient after 72 hrs by modified NCCLS M38-A method
# Sporothrix schenckii [24] = test: Antifungal activity against Sporothrix schenckii P10012 isolate from cutaneous-lymphatic sporotrichosis patient after 72 hrs by Sensititre YeastOne method
# Sporothrix schenckii [25] = test: Antifungal activity against Sporothrix schenckii P10012 isolate from cutaneous-lymphatic sporotrichosis patient after 72 hrs by ATB Fungus 2 method
# Sporothrix schenckii [26] = test: Antifungal activity against Sporothrix schenckii P1621 isolate from cutaneous-lymphatic sporotrichosis patient after 72 hrs by modified NCCLS M38-A method
# Sporothrix schenckii [27] = test: Antifungal activity against Sporothrix schenckii P1621 isolate from cutaneous-lymphatic sporotrichosis patient after 72 hrs by Sensititre YeastOne method
# Sporothrix schenckii [28] = test: Antifungal activity against Sporothrix schenckii SSA29 isolate from cutaneous-lymphatic sporotrichosis patient after 72 hrs by modified NCCLS M38-A method
# Sporothrix schenckii [29] = test: Antifungal activity against Sporothrix schenckii SSA29 isolate from cutaneous-lymphatic sporotrichosis patient after 72 hrs by ATB Fungus 2 method
# Sporothrix schenckii [30] = test: Antifungal activity against Sporothrix schenckii P26187 isolate from cutaneous-lymphatic sporotrichosis patient after 72 hrs by modified NCCLS M38-A method
# Sporothrix schenckii [31] = test: Antifungal activity against Sporothrix schenckii P26187 isolate from cutaneous-lymphatic sporotrichosis patient after 72 hrs by Sensititre YeastOne method
# Sporothrix schenckii [32] = test: Antifungal activity against Sporothrix schenckii P26187 isolate from cutaneous-lymphatic sporotrichosis patient after 72 hrs by ATB Fungus 2 method
# Sporothrix schenckii [33] = test: Antifungal activity against Sporothrix schenckii PGAC0016 isolate from cutaneous-lymphatic sporotrichosis patient after 72 hrs by modified NCCLS M38-A method
# Sporothrix schenckii [34] = test: Antifungal activity against Sporothrix schenckii PGAC0016 isolate from cutaneous-lymphatic sporotrichosis patient after 72 hrs by ATB Fungus 2 method
# Sporothrix schenckii [35] = test: Antifungal activity against Sporothrix schenckii PJRC002 isolate from cutaneous-lymphatic sporotrichosis patient after 72 hrs by modified NCCLS M38-A method
# Sporothrix schenckii [36] = test: Antifungal activity against Sporothrix schenckii P14036 isolate from cutaneous-lymphatic sporotrichosis patient after 72 hrs by modified NCCLS M38-A method
# Sporothrix schenckii [37] = test: Antifungal activity against Sporothrix schenckii P14036 isolate from cutaneous-lymphatic sporotrichosis patient after 72 hrs by ATB Fungus 2 method
# Sporothrix schenckii [38] = test: Antifungal activity against Sporothrix schenckii P30915 isolate from cutaneous-lymphatic sporotrichosis patient after 72 hrs by ATB Fungus 2 method
# Pichia kudriavzevii [39] = test: Antifungal activity against Candida krusei ATCC 6258 […] after 72 hrs by Sensititre YeastOne method; conditions: ATCC 6258, 72 h
# Pichia kudriavzevii [40] = test: Antifungal activity against Candida krusei ATCC 6258 […] after 72 hrs by ATB Fungus 2 method; conditions: ATCC 6258, 72 h
# Candida parapsilosis [41] = test: Antifungal activity against Candida parapsilosis ATCC 22019 […] after 72 hrs by modified NCCLS M38-A method; conditions: Lodderomyces parapsilosis, ATCC 22019, 72 h
# Candida parapsilosis [42] = test: Antifungal activity against Candida parapsilosis ATCC 22019 […] after 72 hrs by ATB Fungus 2 method; conditions: Lodderomyces parapsilosis, ATCC 22019, 72 h
# Sporothrix schenckii [43] = test: Antifungal activity against Sporothrix schenckii isolate from cutaneous-lymphatic sporotrichosis patient after 72 hrs by modified NCCLS M38-A method
# Sporothrix schenckii [44] = test: Antifungal activity against Sporothrix schenckii isolate from cutaneous-lymphatic sporotrichosis patient after 72 hrs by Sensititre YeastOne method
# Sporothrix schenckii [45] = test: Antifungal activity against Sporothrix schenckii isolate from cutaneous-lymphatic sporotrichosis patient after 72 hrs by ATB Fungus 2 method
structure (smiles),measurement,setting,value
C[C@@H]1[C@H](O)[C@@H](C)/C=C/C=C/C=C/C=C/C=C/C=C/C=C/[C@H](O[C@@H]2O[C@H](C)[C@@H](O)[C@H](N)[C@@H]2O)C[C@@H]2O[C@](O)(C[C@@H](O)C[C@@H](O)[C@H](O)CC[C@@H](O)C[C@@H](O)CC(=O)O[C@H]1C)C[C@H](O)[C@H]2C(=O)O [AMPHOTERICIN B],MIC,Sporothrix schenckii [1],8 µg/mL
same,MIC,Sporothrix schenckii [2],0.25 µg/mL
same,MIC,Sporothrix schenckii [3],1 µg/mL
same,MIC,Sporothrix schenckii [4],1 µg/mL
same,MIC,Sporothrix schenckii [5],1 µg/mL
same,MIC,Sporothrix schenckii [6],> 16 µg/mL
same,MIC,Sporothrix schenckii [7],1 µg/mL
same,MIC,Sporothrix schenckii [8],1 µg/mL
same,MIC,Sporothrix schenckii [9],1 µg/mL
same,MIC,Sporothrix schenckii [10],1 µg/mL
same,MIC,Sporothrix schenckii [11],1 µg/mL
same,MIC,Sporothrix schenckii [12],0.25 µg/mL
same,MIC,Sporothrix schenckii [13],1 µg/mL
same,MIC,Sporothrix schenckii [14],0.06 µg/mL
same,MIC,Sporothrix schenckii [15],4 µg/mL
same,MIC,Sporothrix schenckii [16],0.5 µg/mL
same,MIC,Sporothrix schenckii [17],0.5 µg/mL
same,MIC,Sporothrix schenckii [18],≤ 0.5 µg/mL
same,MIC,Sporothrix schenckii [19],0.25 µg/mL
same,MIC,Sporothrix schenckii [20],0.25 µg/mL
same,MIC,Sporothrix schenckii [21],0.5 µg/mL
same,MIC,Sporothrix schenckii [22],2 µg/mL
same,MIC,Sporothrix schenckii [23],0.06 µg/mL
same,MIC,Sporothrix schenckii [24],0.25 µg/mL
same,MIC,Sporothrix schenckii [25],≤ 0.5 µg/mL
same,MIC,Sporothrix schenckii [26],0.125 µg/mL
same,MIC,Sporothrix schenckii [27],0.5 µg/mL
same,MIC,Sporothrix schenckii [28],> 16 µg/mL
same,MIC,Sporothrix schenckii [29],2 µg/mL
same,MIC,Sporothrix schenckii [30],> 16 µg/mL
same,MIC,Sporothrix schenckii [31],0.5 µg/mL
same,MIC,Sporothrix schenckii [32],4 µg/mL
same,MIC,Sporothrix schenckii [33],0.25 µg/mL
same,MIC,Sporothrix schenckii [34],≤ 0.5 µg/mL
same,MIC,Sporothrix schenckii [35],4 µg/mL
same,MIC,Sporothrix schenckii [36],> 16 µg/mL
same,MIC,Sporothrix schenckii [37],1 µg/mL
same,MIC,Sporothrix schenckii [38],≤ 0.5 µg/mL
same,MIC,Pichia kudriavzevii [39],0.5 µg/mL
same,MIC,Pichia kudriavzevii [40],≤ 0.5 µg/mL
same,MIC,Candida parapsilosis [41],0.5 µg/mL
same,MIC,Candida parapsilosis [42],≤ 0.5 µg/mL
same,MIC50,Sporothrix schenckii [43],1 µg/mL
same,MIC90,Sporothrix schenckii [43],> 116 µg/mL
same,MIC50,Sporothrix schenckii [44],0.5 µg/mL
same,MIC90,Sporothrix schenckii [44],1 µg/mL
same,MIC50,Sporothrix schenckii [45],1 µg/mL
same,MIC90,Sporothrix schenckii [45],4 µg/mL
